Test results as given in PMC12860872, “Preclinical evaluation of DOTAGA.Glu.(FAPI)2 and DO3A.Glu.(FAPI)2 as theranostics with human dosimetry extrapolation to lutetium-177 and terbium-161 analogs” (European Journal of Nuclear Medicine and Molecular Imaging, 2025).
Several values for one entry are separate records, joined by “and”; a condition that tells them apart may be missing. Equal values may be shown once.

How the values were obtained:
[1] = system: PC3-mice; test: Biodistribution in PC3-mice incl. blocking; type: in vivo, mouse; conditions: PC3-mice
Protocol: Male athymic Balb/C nude mice (6 weeks/20–25 g) were implanted with PC3 cells (3.5 × 10^6/100 µL PBS) into their right shoulder to develop tumors. The animals were used for biodistribution and PET/SPECT/CT imaging studies, once tumors reached 250–300 mm^3.
All mice were euthanized with intraperitoneal injection of pentobarbital (150 mg/kg), and selected organs were dissected, weighed, and measured for radioactivity using a gamma-counter. Results are expressed as % injected activity per gram tissue (% I.A./g), presented as mean ± SD (n = 3–4).

[2] = biological target: T1, FAP (Homo sapiens, UniProt Q12884); test: Saturation binding on FAP+ CAFs; conditions: listed as 68/natGa-DO3A.Glu.(FAPI)2
T1 construct: the CAF cells overexpressing FAP were seeded at a density of 0.8-1 million cells per well; host or cells: hTERT PF179T prostate cancer-associated fibroblasts
T1 sequence (Q12884 1-760): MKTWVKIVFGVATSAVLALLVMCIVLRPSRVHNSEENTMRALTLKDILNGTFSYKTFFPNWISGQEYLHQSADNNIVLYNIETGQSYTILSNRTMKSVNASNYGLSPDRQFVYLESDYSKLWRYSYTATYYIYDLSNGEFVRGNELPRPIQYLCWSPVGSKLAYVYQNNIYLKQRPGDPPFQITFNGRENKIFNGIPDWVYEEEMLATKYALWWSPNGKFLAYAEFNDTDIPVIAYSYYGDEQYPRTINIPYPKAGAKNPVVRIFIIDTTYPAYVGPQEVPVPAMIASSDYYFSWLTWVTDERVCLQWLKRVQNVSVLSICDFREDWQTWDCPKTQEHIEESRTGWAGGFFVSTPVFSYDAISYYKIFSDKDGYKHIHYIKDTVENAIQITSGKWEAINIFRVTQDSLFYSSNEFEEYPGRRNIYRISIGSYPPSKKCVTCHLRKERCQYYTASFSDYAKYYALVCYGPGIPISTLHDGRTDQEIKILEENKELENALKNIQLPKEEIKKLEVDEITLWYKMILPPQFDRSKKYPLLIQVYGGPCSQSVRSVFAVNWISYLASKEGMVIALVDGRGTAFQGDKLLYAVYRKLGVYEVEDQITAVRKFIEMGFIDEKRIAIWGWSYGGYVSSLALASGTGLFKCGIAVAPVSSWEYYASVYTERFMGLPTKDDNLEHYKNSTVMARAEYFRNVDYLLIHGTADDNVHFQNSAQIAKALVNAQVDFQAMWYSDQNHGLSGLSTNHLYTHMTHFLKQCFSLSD
Protocol: For receptor saturation studies, FAP^+ CAFs were incubated with 0.1 to 10 nM of the radioligands. For internalization studies, approximately 2.5 pmol of the radioligands were added to CAFs followed by incubation for 15, 30, 60, 90, 120, 180 and 240 min for the ^68Ga-labeled or 30, 60, 120, 240 and 360 min for the ^177Lu-labeled radioligands at 37 °C, 5% CO2. For the externalization studies, approximately 2.5 pmol of the ^177Lu-labeled radioligands were added to CAFs followed by incubation for 2 h at 37 °C, 5% CO2. The amount of externalized activity was measured at 0, 10, 20, 30, 60, 120, 240, and 1440 min (Supplemental Data).
For receptor saturation analysis, the CAF cells overexpressing FAP were seeded at a density of 0.8-1 million cells per well in 6-well plates, pre-coated with BME (Cultrex Reduced Growth Factor Basement Membrane Extract, RGF BME, R&D System, Minneapolis, USA) to enhance cell attachment. The cells were incubated overnight with medium (EMEM supplemented and containing 10% FBS, 100 U/mL penicillin and 100 μg/mL streptomycin). The next day, the medium was removed and the cells were incubated for 30 minutes at 37 °C, with 0.8 mL of fresh medium. Afterwards, the plates were placed on ice for 30 minutes followed by incubation with increasing concentrations of ^68/natGa- and ^177/natLu-labelled DOTAGA.Glu.(FAPI)2 and DO3A.Glu.( FAPI)2 (0.1-10 nM final concentration in the wells). After the addition of the radioligands, the cells were incubated for 120 minutes at 4 °C. Non-specific binding was determined in the presence of UAMC1110 at a final concentration of 1 μM. After the completion of the incubation, the cells were washed twice with ice-cold PBS, followed by solubilization with 1 M NaOH. The cell-associated radioactivity was measured using a gamma-counter. Specific binding was plotted against the total molar concentration of the added radiotracer. The Kd values and the concentration of the radioligand required to saturate the receptors (Bmax) were determined by nonlinear regression using GraphPad (Prism 8 Graph Pad Software, San Diego, CA). For all the cell studies the values are normalized for 1x10^6 cells per well and all data are from two independent experiments with triplicates in each experiment.

[3] = Blocking 1h (20 nmol unlabeled precursor)

- Uptake in Adrenal ([1]; 1 h p.i.): 3.6±1.1 %I.A./g
- Uptake in Blood ([1]; 1 h p.i.): 2±0.1 %I.A./g
- Uptake in Bone ([1]; 1 h p.i.): 5±3.1 %I.A./g
- Uptake in Gallbladder ([1]; 1 h p.i.): 2.3±1.8 %I.A./g
- Uptake in Heart ([1]; 1 h p.i.): 1±0.1 %I.A./g
- Uptake in Intestine ([1]; 1 h p.i.): 0.9±0.2 %I.A./g
- Uptake in Kidney ([1]; 1 h p.i.): 6.7±1.7 %I.A./g
- Uptake in Liver ([1]; 1 h p.i.): 4.2±1.2 %I.A./g
- Uptake in Lung ([1]; 1 h p.i.): 3.8±1 %I.A./g
- Uptake in Muscle ([1]; 1 h p.i.): 2±0.03 %I.A./g
- Uptake in Pancreas ([1]; 1 h p.i.): 1.8±0.1 %I.A./g
- Uptake in Salivary glands ([1]; 1 h p.i.): 6.4±0.5 %I.A./g
- Uptake in Spleen ([1]; 1 h p.i.): 1.3±0.3 %I.A./g
- Uptake in Stomach ([1]; 1 h p.i.): 0.9±0.1 %I.A./g
- Uptake in Tumor ([1]; 1 h p.i.): 19±2.4 %I.A./g
- Uptake in Adrenal ([1]; 2 h p.i.): 2.5±0.8 %I.A./g
- Uptake in Blood ([1]; 2 h p.i.): 2.2±0.1 %I.A./g
- Uptake in Bone ([1]; 2 h p.i.): 6.3±1 %I.A./g
- Uptake in Gallbladder ([1]; 2 h p.i.): 3.5±1.8 %I.A./g
- Uptake in Heart ([1]; 2 h p.i.): 0.8±0.03 %I.A./g
- Uptake in Intestine ([1]; 2 h p.i.): 1±0.2 %I.A./g
- Uptake in Kidney ([1]; 2 h p.i.): 4.4±0.8 %I.A./g
- Uptake in Liver ([1]; 2 h p.i.): 3.3±0.9 %I.A./g
- Uptake in Lung ([1]; 2 h p.i.): 2.5±0.6 %I.A./g
- Uptake in Muscle ([1]; 2 h p.i.): 1.3±0.3 %I.A./g
- Uptake in Pancreas ([1]; 2 h p.i.): 1.7±0.1 %I.A./g
- Uptake in Salivary glands ([1]; 2 h p.i.): 5.2±0.1 %I.A./g
- Uptake in Spleen ([1]; 2 h p.i.): 1.6±0.4 %I.A./g
- Uptake in Stomach ([1]; 2 h p.i.): 0.9±0.1 %I.A./g
- Uptake in Tumor ([1]; 2 h p.i.): 19.6 ± 0.7 %I.A./g
- Uptake in Adrenal ([1]; 3 h p.i.): 2.4±0.8 %I.A./g
- Uptake in Blood ([1]; 3 h p.i.): 2.2±0.1 %I.A./g
- Uptake in Bone ([1]; 3 h p.i.): 5.8±1 %I.A./g
- Uptake in Gallbladder ([1]; 3 h p.i.): 1.7±0.9 %I.A./g
- Uptake in Heart ([1]; 3 h p.i.): 0.7±0.1 %I.A./g
- Uptake in Intestine ([1]; 3 h p.i.): 0.9±0.2 %I.A./g
- Uptake in Kidney ([1]; 3 h p.i.): 3.4±0.4 %I.A./g
- Uptake in Liver ([1]; 3 h p.i.): 2.8±0.3 %I.A./g
- Uptake in Lung ([1]; 3 h p.i.): 1.7±0.3 %I.A./g
- Uptake in Muscle ([1]; 3 h p.i.): 1.1±0.1 %I.A./g
- Uptake in Pancreas ([1]; 3 h p.i.): 1.4±0.1 %I.A./g
- Uptake in Salivary glands ([1]; 3 h p.i.): 5±1.4 %I.A./g
- Uptake in Spleen ([1]; 3 h p.i.): 1.4±0.3 %I.A./g
- Uptake in Stomach ([1]; 3 h p.i.): 0.7±0.02 %I.A./g
- Uptake in Tumor ([1]; 3 h p.i.): 17.5 ± 1.1 %I.A./g
- Uptake in Adrenal [1, 3]: 0.1±0.6 %I.A./g
- Uptake in Blood [1, 3]: 2.3±0.5 %I.A./g
- Uptake in Bone [1, 3]: 0.3±0.1 %I.A./g
- Uptake in Gallbladder [1, 3]: 3.5±0.3 %I.A./g
- Uptake in Heart [1, 3]: 0.7±0.2 %I.A./g
- Uptake in Intestine [1, 3]: 0.8±0.3 %I.A./g
- Uptake in Kidney [1, 3]: 6.2±1.2 %I.A./g
- Uptake in Liver [1, 3]: 3.2±0.7 %I.A./g
- Uptake in Lung [1, 3]: 2.1±0.4 %I.A./g
- Uptake in Muscle [1, 3]: 0.3±0.01 %I.A./g
- Uptake in Pancreas [1, 3]: 0.4±0.1 %I.A./g
- Uptake in Salivary glands [1, 3]: 0.7±0.1 %I.A./g
- Uptake in Spleen [1, 3]: 1±0.1 %I.A./g
- Uptake in Stomach [1, 3]: 0.8±0.3 %I.A./g
- Uptake in Tumor [1, 3]: 1.3±0.2 %I.A./g
- Blood pool retention ([1]; over 3 h): around 2 %I.A./g
- tumor uptake ([1]; sustained up to 3 h p.i.): 18–19 %I.A./g
- Kd ([2]; 0.1 to 10 nM radioligand): 900 pM and 890 pM
- Bmax [2]: 0.5 ± 0.05 nM and 0.54 ± 0.05 nM
SMILES: N#C[C@@H]1CC(F)(F)CN1C(=O)CNC(=O)c1ccnc2ccc(OCCCCNC(=O)CC[C@H](NC(=O)CN3CCN(CC(=O)[O-])CCN(CC(=O)[O-])CCN(CC(=O)[O-])CC3)C(=O)NCCCCOc3ccc4nccc(C(=O)NCC(=O)N5CC(F)(F)C[C@H]5C#N)c4c3)cc12.[68Ga+3] [[^68Ga]Ga-DO3A.Glu.(FAPI)2]
